{
  "source": "patent US12161647B2",
  "about": "“Treating hearing loss” (Massachusetts Eye and Ear Infirmary, priority 2012, dated 2024)",
  "key": {"[1]": {"test": "Toxicity of systemic LY411575", "format": "in vivo", "conditions": "50 mg/kg for 5 d", "protocol": "For systemic administration, LY411575 (50 mg/kg) dissolved in 0.5% (wt/vol) methylcellulose (WAKO) was injected orally once daily for 5 consecutive d. Hearing was measured by ABR at 1 d before, 2 d, 1, 2 week, 1, 2 and 3 months after noise exposure.\nPreliminary range finding experiments for drug treatment were carried out by systemic injection and were limited by toxicity. A minimal dosing regimen for an effect on the thymus weight was chosen (43, 44)."}, "[2]": {"test_system": "Atoh1 mRNA", "test": "qRT-PCR of Atoh1 in deafened mature cochlea after round window administration", "format": "in vivo, mouse", "protocol": "4-week-old mice were exposed free-field, awake and unrestrained, in a small reverberant chamber (22). Acoustic trauma was produced by a 2 h exposure to an 8-16 kHz octave band noise presented at 116 dB SPL. The exposure stimulus was generated by a custom white-noise source, filtered (Brickwall Filter with a 60 dB/octave slope), amplified (Crown power amplifier), and delivered (JBL compression driver) through an exponential horn fitted securely to a hole in the top of a reverberant box.\n4-week-old mice weighing 12 to 16 g were used. Before surgery, the animals were anesthetized with ketamine (20 mg/kg, i.p.) and xylazine (100 mg/kg, i.p.), and an incision was made posterior to the pinna near the external meatus after local administration of lidocaine (1%). […]\nThe organs of Corti were dissected in HBSS (Invitrogen) and stored in RNAlater (Ambion) at −80° C. until further use. […] Samples were analyzed in 96 wells in triplicate by qPCR (Applied Biosystems 7900HT), and PCR thermal cycling conditions were as follows: initial denaturation at 95° C. for 2 min, denaturation at 95° C. for 15 s, annealing/extension at 60° C. for 1 min for 45 cycles. […] Relative gene expression was analyzed by using the ΔΔCT method. Gene expression was calculated relative to 18S RNA, and the amount of cDNA applied was adjusted so that the Ct value for 18S RNA was between 8 and 11. […]"}},
  "data": [
    {"smiles": "C[C@H](NC(=O)[C@@H](O)c1cc(F)cc(F)c1)C(=O)N[C@@H]1C(=O)N(C)c2ccccc2-c2ccccc21", "note": "[LY411575, N-2((2S)-2-(3,5-difluorophenyl)-2-hydroxyethanoyl)-N1-((7S)-5-methyl-6-oxo-6,7-dihydro-5H-dibenzo[b,d]azepin-7-yl)-l-alaninamide]", "values": [
      {"measurement": "side-effects in treated mice", "setting": "[1]", "result": "significant side-effects"},
      {"measurement": "thymus total number of cells decreased to", "setting": "[1]", "result": "1/40"},
      {"measurement": "mice (of 12) that could be tested for ABR at 3 months; the rest died within the first week", "setting": "[1]; deaths due to severe diarrhea and weight loss", "result": 6, "unit": "mice"},
      {"measurement": "thymus double positive fraction of CD4 and CD8 after treatment", "setting": "[1]; decreased from 78.6%", "result": 1.23, "unit": "%"},
      {"measurement": "weight loss in surviving mice", "setting": "[1]; in 3 d", "result": "approximately 15%"},
      {"measurement": "spleen finding", "setting": "[1]; in a week", "result": "severe atrophy"},
      {"measurement": "Atoh1 expression above the level post-noise exposure", "setting": "[2]; 1 d after LY411575 treatment, round window niche", "result": 2.28, "unit": "×"},
      {"measurement": "Atoh1 expression", "setting": "[2]; 3 d after treatment, p<0.05", "result": "remained elevated"}
    ]}
  ]
}
